According to ChEMBL document CHEMBL1201862, “PubChem BioAssay data set” (2004):
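A five-concentration, 48-hour dose response in 96-well plates underlies each endpoint, interpolated linearly between surrounding concentrations. The concentration for 50% growth inhibition is given as GI50.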 The source made the active and inactive calls. Cut-off read from the data, not from the text of the source: active = GI50 up to about 1.1 µM and inactive = higher.

How the values were obtained:
Assay in all cases: NCI anticancer screen, dose series, 48 h
[1] = tested on: BT-549
[2] = tested on: LXFL 529
[3] = tested on: HOP-18
[4] = tested on: M19-MEL
[5] = tested on: XF498
[6] = tested on: DMS-114
[7] = tested on: SNB-78
[8] = tested on: DMS-273
[9] = tested on: RXF 631

| SMILES | GI50 [1] | GI50 [4] | GI50 [6] | further results |
| --- | --- | --- | --- | --- |
| Oc1ccccc1C(Sc1nc2ccccc2s1)Sc1nc2ccccc2s1 | 56.4 µM (inactive) | – | – | – |
| Cc1ccc2c3c1O[C@H]1c4nc5ccccc5cc4C[C@@]4(O)[C@@H](C2)N(CC2CC2)CC[C@]314 | 11.2 µM (inactive) | – | – | – |
| N#Cc1c(-c2ccc(Cl)cc2)cc(-c2ccc(Nc3ccnc4cc(Cl)ccc34)cc2)nc1N | > 100 µM (inactive) | – | – | – |
| COCC(=O)OC1CCn2c1nc1c2C(=O)C(C)=C(NC(C)=O)C1=N (configuration not stated) | 0.993 µM (active) | – | – | – |
| Cc1ccc2c(sc(-c3ccc4c(c3)sc(-c3ccc(N(C)C)cc3)[n+]4C)[n+]2C)c1S(=O)(=O)O.Cc1ccc2c(sc(-c3ccc4c(c3)sc(-c3ccc5c(c3)sc(-c3ccc(N(C)C)cc3)[n+]5C)[n+]4C)[n+]2C)c1S(=O)(=O)O | 30.8 µM (inactive) | – | – | – |
| Cc1cn([C@@H]2O[C@H](CO[Si](C)(C)C(C)(C)C)[C@]3(O[C@H]3C(=O)NN)[C@H]2O[Si](C)(C)C(C)(C)C)c(=O)[nH]c1=O | 5.38 µM (inactive) | – | – | – |
| C(=N\c1cc2cc(Sc3ccccc3)ccc2[nH]1)/c1ccccc1 | > 12.5 µM (inactive) | – | – | – |
| Cc1ccc(S(=O)(=O)N/N=C2/C3CC4CCC2C4C3)cc1 (configuration not stated) | > 100 µM (inactive) | – | – | – |
| C[N+]1(CC[N+]2(C)CCCC2c2cccnc2)CCCC1c1cccnc1 (configuration not stated) | > 100 µM (inactive) | – | – | – |
| COC(=O)C1=CO[C@@H](OC2CC(CO)C(O)C(O)C2O)[C@@H]2[C@@H](C)[C@@H](OC(=O)/C=C/c3ccccc3)[C@@H](O)[C@H]12.COC(=O)C1=CO[C@@H](OC2CC(CO)C(O)C(O)C2O)[C@@H]2[C@@H](C)[C@@H](OC(=O)c3ccccc3)[C@@H](O)[C@H]12 (some centres not stated) | – | > 100 µM (inactive) | > 100 µM (inactive) | GI50 [2]: > 100 µM (inactive); GI50 [3]: > 100 µM (inactive); GI50 [5]: > 100 µM (inactive) |
| O=C(/C=C/c1ccc([N+](=O)[O-])cc1)c1nc2ccccc2[nH]1 | > 62.8 µM (inactive) | – | – | – |
| CCCc1nc(Cl)nc(Cl)c1Cl | 0.0227 µM (active) | – | – | – |
| O=C1/C(=C/c2cccc([N+](=O)[O-])c2)COc2ccc(Br)cc21 | – | > 100 µM (inactive) | 65.9 µM (inactive) | GI50 [7]: > 100 µM (inactive); GI50 [2]: > 100 µM (inactive); GI50 [3]: > 100 µM (inactive); GI50 [8]: 45.2 µM (inactive); GI50 [5]: > 100 µM (inactive) |
| COC(=O)/C=C1\CCCN1CCc1cc2c(cc1CC#N)OCO2 | 52.6 µM (inactive) | – | – | – |
| COc1ccccc1NC(=O)C1=C(C)NC(C)=C(C(=O)Nc2ccccc2OC)C1c1ccc(N(C)C)cc1 | – | 31.5 µM (inactive) | 21.8 µM (inactive) | GI50 [7]: 27.1 µM (inactive); GI50 [2]: 25.4 µM (inactive); GI50 [5]: 12.1 µM (inactive) |
| O=C(O)CC(Nc1ccccc1)C(=O)O (configuration not stated) | > 100 µM (inactive) | – | – | – |

| SMILES | GI50 [1] | GI50 [4] | GI50 [6] | further results |
| --- | --- | --- | --- | --- |
| C=CC[C@]1(C2=NC(C)(C)CO2)c2ccccc2-c2ccccc2[C@H]1C(C)=O | 16 µM (inactive) | – | – | – |
| COc1ccc(/C=C2\C(=O)NC(=O)c3ccccc32)cc1OC | > 100 µM (inactive) | 41 µM (inactive) | 5 µM (inactive) | GI50 [7]: 6.58 µM (inactive); GI50 [3]: > 100 µM (inactive); GI50 [8]: 21.4 µM (inactive); GI50 [5]: 6.71 µM (inactive) |
| COc1ccc(NC2CC(C)N(C(=O)c3ccccc3)O2)cc1 (configuration not stated) | 8.79 µM (inactive) | – | – | – |
| COc1cc(-c2cc(=O)c3cc4c(=O)cc(-c5cc(OC)c(OC)c(OC)c5)oc4cc3o2)cc(OC)c1OC | 17.5 µM (inactive) | – | – | – |
| Cc1ccc(/N=N/c2c(C)nn(C(=O)CC(=O)Nc3ccc(Cl)cc3)c2C)cc1C | > 100 µM (inactive) | – | – | – |
| O=C(Cc1cc[n+]([O-])cc1)C(=O)Nc1cc(Cl)c(Cl)cc1Cl | – | > 100 µM (inactive) | > 100 µM (inactive) | GI50 [7]: > 100 µM (inactive); GI50 [2]: > 100 µM (inactive); GI50 [9]: > 100 µM (inactive) |
| C[C@]12CCC(=O)C=C1CC[C@@H]1[C@@H]2[C@@H](O)C[C@@]2(C)[C@H]1CC[C@]2(O)C(=O)COC(=O)CCC1CCCC1 [HYDROCORTISONE CYPIONATE] | – | > 100 µM (inactive) | > 100 µM (inactive) | GI50 [7]: > 100 µM (inactive); GI50 [2]: > 100 µM (inactive); GI50 [8]: 61.1 µM (inactive); GI50 [5]: > 100 µM (inactive) |
| Cc1ccccc1NC(=O)c1c(C)oc2c1C(=O)c1ccccc1C2=O | – | 8.63 µM (inactive) | 24.7 µM (inactive) | GI50 [7]: 1.86 µM (inactive); GI50 [2]: 21.5 µM (inactive); GI50 [8]: 42 µM (inactive); GI50 [5]: 32.2 µM (inactive) |
| CC1=CC(=O)C(=CN2C(=O)/C(=C\c3cccnc3)NC2=S)C(=O)O1 | > 100 µM (inactive) | – | – | – |
| C=C1c2nc3ccccc3n2C=C(c2ccc(C)cc2)N1c1ccccc1 | 7.78 µM (inactive) | – | – | – |
| c1cc2c3c(c1)c1cc4c(cc1c[n+]3CC2)OCO4 [ANHYDROLYCORINIUM CHLORIDE] | – | 1.33 µM (inactive) | 2.45 µM (inactive) | GI50 [7]: 4.06 µM (inactive); GI50 [3]: 9.79 µM (inactive); GI50 [8]: 4.42 µM (inactive); GI50 [5]: 4.14 µM (inactive) |
| Clc1ccc(CSC2=NCCN2)cc1Cl | 18.8 µM (inactive) | – | – | – |
| CC1OC(OC2C(OC3CCC4(C)C(CCC5(C)C4CC=C4C6CC(C)(C)CCC6(C(=O)O)CCC45C)C3(C)CO)OCC(O)C2O)C(O)C(O)C1O (configuration not stated) | 16.7 µM (inactive) | – | – | – |
| O=[N+]([O-])c1cccc2nc3ccccc3c(NCCO)c12 | 0.00514 µM (active) | 0.0021 µM (active) | 0.00316 µM (active) | GI50 [7]: 0.00533 µM (active); GI50 [2]: 0.00285 µM (active); GI50 [3]: 0.0056 µM (active); GI50 [8]: 0.00918 µM (active); GI50 [5]: 0.00135 µM (active) |
| CCCCCCCCCCCCCCCCCCOCC(O)CO (configuration not stated) [BATILOL] | – | 12 µM (inactive) | 18 µM (inactive) | GI50 [7]: > 25 µM (inactive); GI50 [3]: 0.61 µM (active); GI50 [8]: > 5.93 µM (inactive); GI50 [5]: 15.5 µM (inactive) |
